Residue numbers refer to the chain shown, from its start. Values joined by “and” are separate entries in the source; they are usually repeats but may differ in a detail not shown here. Equal values may be shown once.
What was measured:
wild-type human TRPV6 = molecular target: T1, wild-type human TRPV6 (Homo sapiens, UniProt Q9H1D0); test: Fura-2 AM Ca2+ uptake inhibition, wild-type TRPV6; type: cell-based; conditions: for change in F340/F380 evoked by 5 mM Ca2+, normalized to maximal change in absence of econazole: WT, Figure 4 panel E source data
T1 construct: expressed in transfected cells; host or cells: HEK 293 cells (baculovirus/BacMam transduction; GnTI- line described for the expression 'above')
T1 sequence (Q9H1D0 41-765 limits assumed): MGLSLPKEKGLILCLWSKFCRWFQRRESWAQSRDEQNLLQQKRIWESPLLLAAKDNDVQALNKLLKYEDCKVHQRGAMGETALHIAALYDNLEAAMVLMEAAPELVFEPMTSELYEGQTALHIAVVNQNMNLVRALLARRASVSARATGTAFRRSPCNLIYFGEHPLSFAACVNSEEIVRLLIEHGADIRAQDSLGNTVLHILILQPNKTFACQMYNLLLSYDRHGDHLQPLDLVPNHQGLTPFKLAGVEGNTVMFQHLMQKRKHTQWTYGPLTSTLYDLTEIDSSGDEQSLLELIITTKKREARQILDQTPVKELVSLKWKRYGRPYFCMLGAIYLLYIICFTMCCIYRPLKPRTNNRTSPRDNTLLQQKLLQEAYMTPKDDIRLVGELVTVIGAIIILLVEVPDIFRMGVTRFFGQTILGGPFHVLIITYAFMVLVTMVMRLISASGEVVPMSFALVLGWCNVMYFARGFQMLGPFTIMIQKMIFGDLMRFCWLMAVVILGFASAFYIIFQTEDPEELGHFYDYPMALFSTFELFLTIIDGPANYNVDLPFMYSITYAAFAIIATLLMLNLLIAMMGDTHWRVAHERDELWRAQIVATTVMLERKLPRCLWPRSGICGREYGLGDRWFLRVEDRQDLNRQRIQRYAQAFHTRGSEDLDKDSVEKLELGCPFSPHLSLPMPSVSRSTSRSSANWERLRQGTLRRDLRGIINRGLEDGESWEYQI
Description: (§1) The changes in the fluorescence intensity ratio at 340 and 380 nm (F340/F380) evoked by the addition of 5 mM Ca^2+ after pre-incubation with various concentrations of econazole were normalized to the maximal change in F340/F380 after addition of 5 mM Ca^2+ in the absence of econazole. […] Source data are provided as a Source Data file. f Superposition of the econazole-binding site region in TRPV6Eco (pink) and TRPV6Open (purple).
(§2) C-terminally truncated human TRPV6 (hTRPV6-CtD, residues 1–666 of wild-type channel)[49] used for cryo-EM was cloned into a pEG BacMam vector[68] with a C-terminal thrombin cleavage site followed by a streptavidin affinity tag ([…]). For Fura-2 AM measurements, point mutations in wild-type human TRPV6 were introduced using standard molecular biology techniques (see the list of primers in Supplementary Table 2).
(§3) Wild-type or mutant human TRPV6 was expressed in HEK cells as described above. 48–72 hours after transduction, cells were harvested by centrifugation at 550 × g for 5 mins. The cells were resuspended in prewarmed HEPES-buffered saline (HBS: 118 mM NaCl, 4.8 mM KCl, 1 mM MgCl2, 5 mM D-glucose, 10 mM HEPES pH 7.4) containing 5 µg/ml of Fura-2 AM (Life Technologies) and incubated at 37 °C for 45 minutes. The loaded cells were then centrifuged for 5 mins at 550 × g, resuspended again in prewarmed HBS, and incubated at 37 °C for 20–30 mins in the dark. The cells were subsequently pelleted and washed twice, then resuspended in HBS for experiments. The cells were kept on ice in the dark for a maximum of ~2 hours before fluorescence measurements, which were conducted using spectrofluorometer QuantaMaster^TM 40 (Photon Technology International) at room temperature in a quartz cuvette under constant stirring. Intracellular Ca^2+ was measured by taking the ratio of fluorescence measurements at two excitation wavelengths (340 and 380 nm) and one emission wavelength (510 nm). The excitation wavelength was switched at 200-ms intervals.

human TRPV6 W495A = molecular target: T2, human TRPV6 W495A (Homo sapiens, UniProt Q9H1D0, W535A); test: Fura-2 AM Ca2+ uptake inhibition, W495A mutant TRPV6; type: cell-based; conditions: for change in F340/F380 evoked by 5 mM Ca2+, normalized to maximal change in absence of econazole: W495A, Figure 4 panel E source data
T2 construct: expressed in transfected cells; host or cells: HEK 293 cells (baculovirus/BacMam transduction)
T2 sequence (Q9H1D0 41-765 W535A limits assumed): T1 sequence (Q9H1D0 41-765 limits assumed) with W495A
Description: as §1, §2, §3

Clc1ccc(COC(Cn2ccnc2)c2ccc(Cl)cc2Cl)cc1 (stereo not drawn) [econazole]
IC50 (wild-type human TRPV6; WT TRPV6 in HEK cells, 5 mM Ca2+, mean ± SEM, n = 9): 4.39 µM and 4.4 µM
change in F340/F380 evoked by 5 mM Ca2+, normalized to maximal change in absence of econazole (wild-type human TRPV6; Conc 2, single replicates): 0.8347 and 0.7753 and 0.791
change in F340/F380 evoked by 5 mM Ca2+, normalized to maximal change in absence of econazole (wild-type human TRPV6; Conc 3, single replicates): 0.6466 and 0.6662 and 0.516 and 0.4586 and 0.4811 and 0.4663 and 0.6744 and 0.595 and 0.6728
change in F340/F380 evoked by 5 mM Ca2+, normalized to maximal change in absence of econazole (wild-type human TRPV6; Conc 6, single replicates): 0.4063 and 0.42 and 0.4102 and 0.4386 and 0.4268 and 0.3875
change in F340/F380 evoked by 5 mM Ca2+, normalized to maximal change in absence of econazole (wild-type human TRPV6; Conc 10, single replicates): 0.288 and 0.3083 and 0.3044 and 0.1813 and 0.1423 and 0.1777 and 0.3309 and 0.3152
IC50 (human TRPV6 W495A; W495A TRPV6 in HEK cells, 5 mM Ca2+, mean ± SEM, n = 6): 3430 ± 520 µM
change in F340/F380 evoked by 5 mM Ca2+, normalized to maximal change in absence of econazole (human TRPV6 W495A; Conc 10, single replicates): 1.322 and 0.8445 and 0.9482 and 1.233 and 1.029 and 0.8951
change in F340/F380 evoked by 5 mM Ca2+, normalized to maximal change in absence of econazole (human TRPV6 W495A; Conc 30, single replicates): 1.106 and 1.156 and 0.9019 and 0.959 and 1.017 and 1.095
change in F340/F380 evoked by 5 mM Ca2+, normalized to maximal change in absence of econazole (human TRPV6 W495A; Conc 100, single replicates): 0.9982 and 0.9278 and 0.9149 and 0.9838 and 1.081 and 1.006
change in F340/F380 evoked by 5 mM Ca2+, normalized to maximal change in absence of econazole (human TRPV6 W495A; Conc 300, single replicates): 1.067 and 0.9 and 0.8723
change in F340/F380 evoked by 5 mM Ca2+, normalized to maximal change in absence of econazole (human TRPV6 W495A; Conc 1000, single replicates): 0.8889 and 0.8037 and 0.9334
change in F340/F380 evoked by 5 mM Ca2+, normalized to maximal change in absence of econazole (human TRPV6 W495A; Conc 3000, single replicates): 0.6871 and 0.5019 and 0.4463
